The structures appear in SMILES notation.

T1 sequence (P26663 2420-3010): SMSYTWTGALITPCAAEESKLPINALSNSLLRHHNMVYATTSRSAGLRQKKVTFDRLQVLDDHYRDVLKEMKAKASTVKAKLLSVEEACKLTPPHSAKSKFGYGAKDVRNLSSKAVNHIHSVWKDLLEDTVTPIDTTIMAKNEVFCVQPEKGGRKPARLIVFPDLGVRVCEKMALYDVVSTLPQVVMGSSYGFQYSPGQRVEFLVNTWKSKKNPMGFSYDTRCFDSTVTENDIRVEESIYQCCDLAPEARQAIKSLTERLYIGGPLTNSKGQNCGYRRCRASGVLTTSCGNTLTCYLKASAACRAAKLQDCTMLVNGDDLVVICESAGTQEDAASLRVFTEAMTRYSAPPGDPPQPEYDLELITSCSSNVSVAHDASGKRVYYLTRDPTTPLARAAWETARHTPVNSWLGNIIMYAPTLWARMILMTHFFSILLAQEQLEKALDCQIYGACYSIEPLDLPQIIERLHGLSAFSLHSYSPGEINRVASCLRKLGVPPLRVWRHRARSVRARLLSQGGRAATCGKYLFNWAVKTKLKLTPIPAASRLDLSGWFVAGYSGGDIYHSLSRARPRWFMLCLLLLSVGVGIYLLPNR

The test addresses T1, Recombinant HCV polymerase (Hepatitis C virus genotype 1b, UniProt P26663).
T1 construct: Recombinant HCV polymerase was tested for its ability to perform primer/template-directed transcription
The test can be described thus: biochemical. As to conditions: inhibition of polymerase-directed transcription; 30 min at 30° C; 30 nM enzyme; cpm data in triplicate. The procedure:
The compounds described herein were tested for activity with HCV polymerase. Recombinant HCV polymerase was tested for its ability to perform primer/template-directed transcription in assays that contained 30 mM tris-HCl pH 7.2, 10 mM MgCl2, 20 mM NaCl, 1 mM Dithiothreitol (DTT), 0.05% Tween-20, 1% glycerol, 5 pmoles biotin-dG12 (primer), 0.5 pmoles poly(rC)300 (template), 1 μM GTP, 0.1–0.3 uCi α-^32P-GTP, and 2.5 pmoles (0.15 μg) HCV polymerase protein in a final volume of 75 μL. Reactions were initiated by addition of enzyme and incubated 30 minutes at 30° C. Reactions were stopped by addition of 33 mM EDTA, and polynucleotide products were collected by filtration through Diethylaminoethyl (DE) Filtermat papers (Wallac). Unincorporated triphosphate was removed by washing the filters with 5% dibasic sodium phosphate. The filters were counted in a Packard Tri-Lux Microbeta scintillation counter (Packard Bioscience, Meriden, Conn.). Compounds to be tested were added at various concentrations, e.g., 1 μm to 50 μm, from stocks in 10% DMSO-water (final DMSO is 1% in reaction).
IC50 values were estimated from the primary cpm data (collected in triplicate) using the formula: cpm (I)=cpm (no inhibitor)(1−([I]/([I]+IC50))). […] A percent inhibition value is expressed for a compound where it was impractical to calculate an IC50 value with available data.
What is called IC50 is the midpoint of a concentration-inhibition curve. Consider `CCc1cc(CCC2(C3CCCC3)CC(O)=C(Cc3nc4nc(C)cc(C)n4n3)C(=O)O2)ccc1COC` (stereo not drawn) [A(120), 6-Cyclopentyl-3-[(5,7-dimethyl[1,2,4]triazolo[1,5-a]pyrimidin-2-yl)methyl]-6-{2-[3ethyl-4-(methoxymethyl)phenyl]ethyl}-4-hydroxy-5,6dihydro-2H-pyran-2-one], for which the IC50 was 7 nM.

For `CS(=O)(=O)c1ccc(CCC2(C3CCCC3)CC(=O)CC(=O)O2)cc1Cl` (stereo not drawn) [B(2), 6-{2-[3-Chloro-4-(methylsulfonyl)phenyl]ethyl}-6-cyclopentyldihydro-2H-pyran-2,4(3H)-dione], the concentration for half-maximal inhibition (IC50) stood at 48000 nM. Next, `CCc1cc(CCC2(C3CCCC3)CC(O)=C(Cc3nc4nc(C)cc(C)n4n3)C(=O)O2)ccc1CNC(C)=O` (stereo not drawn) [A(131), N-[4-(2-{2-cyclopentyl-5-[(5,7-dimethyl[1,2,4]triazolo[1,5-a]pyrimidin-2-yl)methyl]-4-hydroxy-6-oxo-3,6-dihydro-2H-pyran-2-yl}ethyl)-2-ethylbenzyl]acetamide]: 2 nM; `CCc1cc(CCC2(C3CCCC3)CC(O)=C(Cc3nc4nc(C)cc(C)n4n3)C(=O)O2)c(OCC2CCC2)cc1O` (stereo not drawn) [A(60), 6-{2-[2-(Cyclobutylmethoxy)5-ethyl-4-hydroxyphenyl]ethyl}-6-cyclopentyl-3-[(5,7-dimethyl[1,2,4]triazolo[1,5-a]pyrimidin-2-yl)methyl]-4-hydroxy-5,6-dihydro-2H-pyran-2-one]: 3 nM; `CCOc1cnc(CC)cc1CCC1(C2CCCC2)CC(O)=C(Cc2nc3ncc(C)cn3n2)C(=O)O1` (single isomer, unassigned) [A(56), 6-Cyclopentyl-6-[2-(5-ethoxy-2-ethylpyridin-4-yl)ethyl]-4-hydroxy-3-[(6-methyl[1,2,4]triazolo[1,5-a]pyrimidin-2-yl)methyl]-5,6-dihydro-2H-pyran-2-one]: 4 nM. Next, `COc1cc(OC)c(CCC2(C3CCCC3)CC(=O)C(Sc3nc(N)nc4nc[nH]c34)C(=O)O2)cc1Cl` (stereo not drawn) [B(21), 3-[(2-Amino-7H-purin-6-yl)thio]-6-[2-(5-chloro-2,4-dimethoxyphenyl)ethyl]-6-cyclopentyldihydro-2H-pyran-2,4(3H)-dione]: 178 nM. Next, `CCc1cc(CCC2(C3CCCC3)CC(=O)CC(=O)O2)ccc1NS(C)(=O)=O` (stereo not drawn) [A(105), N-{4-[2-(2-cyclopentyl-4,6-dioxotetrahydro-2H-pyran-2-yl)ethyl]-2-ethylphenyl}methanesulfonamide]: 250 nM. Consider `CCc1cc(CCC2(C3CCCC3)CC(O)=C(Cc3nc4nc(C)cc(C)n4n3)C(=O)O2)ccn1` (single isomer, unassigned) [A(44), 6-Cyclopentyl-3-[(5,7-dimethyl[1,2,4]triazolo[1,5-a]pyrimidin-2-yl)methyl]-6-[2-(2-ethylpyridin-4-yl)ethyl]-4-hydroxy-5,6-dihydro-2H-pyran-2-one], for which the half-maximal inhibitory concentration (IC50) stood at 7 nM. The result for `CCCOc1cnc(CC)cc1CCC1(C2CCCC2)CC(O)=C(Cc2nc3ncc(C)cn3n2)C(=O)O1` (stereo not drawn) [A(46), 6-Cyclopentyl-6-[2-(2-ethyl-5-propoxypyridin-4-yl)ethyl]-4-hydroxy-3-[(6-methyl[1,2,4]triazolo[1,5-a]pyrimidin-2-yl)methyl]-5,6-dihydro-2H-pyran-2-one] reads 6 nM; that for `CCCOc1cnc(CC)cc1CCC1(C2CCCC2)CC(O)=C(Cc2nc3nc(C)cc(C)n3n2)C(=O)O1` (single isomer, unassigned) [A(53), 6-Cyclopentyl-3-[(5,7-dimethyl[1,2,4]triazolo[1,5-a]pyrimidin-2-yl)methyl]-6-[2-(2-ethyl-5-propoxypyridin-4-yl)ethyl]-4-hydroxy-5,6-dihydro-2H-pyran-2-one], 3 nM. The result for `Cc1nn(C)c(C)c1CC1=C(O)CC(CCc2ccc(C(C)(C)C#N)c(F)c2)(C2CCCC2)OC1=O` (stereo not drawn) [A(89)] reads 9 nM; that for `Cc1cc(C)n2nc(CC3=C(O)CC(CCc4ccc(C(C)(C)C#N)c(C(F)(F)F)c4)(C4CCCC4)OC3=O)nc2n1` (racemic) [Example B(28), 2-[4-(2-{2-cyclopentyl-5-[(5,7-dimethyl[1,2,4]triazolo[1,5-a]pyrimidin-2-yl)methyl]-4-hydroxy-6-oxo-3,6-dihydro-2H-pyran-2-yl}ethyl)-2-(trifluoromethyl)phenyl]-2-methylpropanenitrile], 5 nM. Next, `CCc1cc(CCC2(C3CCCC3)CC(O)=C(Cc3nc4ncccn4n3)C(=O)O2)ccc1NS(C)(=O)=O` (stereo not drawn) [A(107), N-(4-{2-[2-cyclopentyl-4-hydroxy-6-oxo-5-([1,2,4]triazolo[1,5-a]pyrimidin-2-ylmethyl)-3,6dihydro-2H-pyran-2-yl]ethyl}-2-ethylphenyl)methanesulfonamide]: 6 nM. Regarding `CCc1cc(CCC2(C3CCCC3)CC(O)=C(Cc3nc4nc(C)cc(C)n4n3)C(=O)O2)ccc1C` (stereo not drawn) [A(111), 6-Cyclopentyl-3[(5,7-dimethyl[1,2,4]triazolo[1,5-a]pyrimidin-2-yl)methyl]-6-[2-(3-ethyl-4-methylphenyl)ethyl]-4-hydroxy-5,6dihydro-2H-pyran-2-one], the IC50 is 5 nM. Next, `CCc1cc(CCC2(C3CCCC3)CC(O)=C(Cc3nc4nc(C)cc(C)n4n3)C(=O)O2)c2c(c1O)CCO2` (single isomer, unassigned; enantiomer 1) [A(12), Enantiomer 1 of 6-Cyclopentyl-3-[(5,7-dimethyl[1,2,4]triazolo[1,5-a]pyrimidin-2-yl)methyl]-6-[2-(5-ethyl-4-hydroxy-2,3-dihydro-1-benzofuran-7-yl)ethyl]-4-hydroxy-5,6-dihydro-2H-pyran-2-one]: 2 nM; `Cc1cnc2nc(CC3=C(O)CC(CCc4ccc(C(C)(C)C#N)c(C)c4)(C4CCCC4)OC3=O)nn2c1` (stereo not drawn) [A(78), 2-[4-(2-{2-Cyclopentyl-4-hydroxy-5-[(6-methyl[1,2,4]triazolo[1,5-a]pyrimidin-2-yl)methyl]-6-oxo-3,6-dihydro-2H-pyran-2-yl}ethyl)-2-methylphenyl]-2-methylpropanenitrile]: 12 nM. The result for `CC(C)(O)c1ccc(CCC2(C3CCCC3)CC(O)=C(Cc3nc4ncccn4n3)C(=O)O2)cc1Cl` (stereo not drawn) [B(35), 6-{2-[3-Chloro-4-(1-hydroxy-1-methylethyl)phenyl]ethyl}-6-cyclopentyl-4-hydroxy-3-([1,2,4]triazolo[1,5-a]pyrimidin-2-ylmethyl)-5,6-dihydro-2H-pyran-2-one] reads 10 nM.

For the compound `C[C@@H](NC(=O)OC(C)(C)C)c1ccc(CCC2(C3CCCC3)CC(=O)CC(=O)O2)cc1` (stereo partly drawn) [A(90)], the IC50 was determined as 43000 nM. Next, `CCc1cc(CCC2(C3CCCC3)CC(O)=C(Cc3nc4nc(C)cc(C)n4n3)C(=O)O2)ccc1-c1ncco1` (single isomer, unassigned; enantiomer 2) [A(139), Enantiomer 2 of 6-Cyclopentyl-3-[(5,7-dimethyl[1,2,4]triazolo[1,5-a]pyrimidin-2-yl)methyl]-6-{2-[3-ethyl-4-(1,3-oxazol-2-yl)phenyl]ethyl}-4-hydroxy-5,6-dihydro-2H-pyran-2-one]: 4 nM; `CCc1cc(CCC2(C3CCCC3)CC(O)=C(Cc3nc4nc(C)cc(C)n4n3)C(=O)O2)ccc1Cn1cccn1` (stereo not drawn) [A(112), 6-Cyclopentyl-3-[(5,7-dimethyl[1,2,4]triazolo[1,5-a]pyrimidin-2-yl)methyl]-6-{2-[3-ethyl-4-(1H-pyrazol-1-ylmethyl)phenyl]ethyl}-4-hydroxy-5,6-dihydro-2H-pyran-2-one]: 7 nM; `CCc1ccc(OC)c(CCC2(C3CCCC3)CC(O)=C(Cc3nc4nc(C)cc(C)n4n3)C(=O)O2)n1` (stereo not drawn) [A(6), 6-Cyclopentyl-3-[(5,7-dimethyl[1,2,4]triazolo[1,5-a]pyrimidin-2-yl)methyl]6-[2-(6-ethyl-3-methoxypyridin-2-yl)ethyl]4-hydroxy-5,6-dihydro-2H-pyran-2-one]: 39 nM. The result for `CCc1cc(CCC2(C3CCCC3)CC(O)=C(Cc3nc4nc(C)cc(C)n4n3)C(=O)O2)ccc1NS(=O)(=O)CC` (stereo not drawn) [A(108), N-[4-(2-{2-cyclopentyl-5-[(5,7-dimethyl[1,2,4]triazolo[1,5-a]pyrimidin-2-yl)methyl]-4-hydroxy-6-oxo-3,6-dihydro-2H-pyran-2-yl}ethyl)-2-ethylphenyl]ethanesulfonamide] reads 6 nM. Next, `COC(=O)c1ccc(CCC2(C3CCCC3)CC(O)=C(Cc3nc4nc(C)cc(C)n4n3)C(=O)O2)cc1F` (stereo not drawn) [B(8), Methyl 4-(2-{2-cyclopentyl-5-[(5,7-dimethyl[1,2,4]triazolo[1,5-a]pyrimidin-2-yl)methyl]-4-hydroxy-6oxo-3,6-dihydro-2H-pyran-2-yl}ethyl)-2-fluorobenzoate]: 29 nM; `CCc1cc(CCC2(C3CCCC3)CC(O)=C(Cc3nc4ncc(C)cn4n3)C(=O)O2)c(OC)cn1` (stereo not drawn) [A(4), 6-Cyclopentyl-6-[2-(2-ethyl-5-methoxypyridin-4-yl)ethyl]-4-hydroxy-3-[(6-methyl[1,2,4]triazolo[1,5-a]pyrimidin-2-yl)methyl]-5,6-dihydro-2H-pyran-2-one]: 7 nM.

These data come from patent US7151105B2, “Inhibitors of Hepatitis C virus RNA-dependent RNA polymerase, and compositions and treatments using the same” (Agouron Pharmaceuticals, Inc., priority 2004, dated 2006).
